Data as given in patent publication US8962690B2, “Compositions of dibromomalonamide and their use as biocides” (priority 2009, dated 2015).
Counter-ions that a name gives are not always drawn. Like-named read-outs stand apart in the source and are kept apart here.

Columns and labels:
[1] = test system: mixture of Pseudomonas aeruginosa ATCC 10145 and Staphylococcus aureus ATCC 6538; experiment: Kill Assay (minimum biocide concentration, MBC); format: cell-based; settings: 2 h
Method: Kill Assay. This assay is used as a preliminary evaluation of synergy between the actives. The procedure is as follows. A mineral salts solution (0.2203 g of CaCl2, 0.1847 g of MgSO4, and 0.2033 g of NaHCO3 in 1 L water, approximately pH 8) is inoculated with equal amounts (about 10^7CFU/ml) of a mixture of Pseudomonas aeruginosa ATCC 10145 and Staphylococcus aureus ATCC 6538. Aliquots of the cell suspension are then treated with 2,2-dibromomalonamide (“DBMAL”), a surface active biocide, and their combinations at various concentration levels. […] The MBC values are then used to calculate a synergy index (SI) values. Summaries of the kill assay results are presented in the individual Examples. In each table, MBC values for each biocide and the blends tested are presented. Likewise, the Synergy Index (“SI”) values for the combinations are listed. SI is calculated with the following equation: Synergy Index=Ca/CA+Mb/CB where • Ca: Concentration of biocide A required for complete bacterial kill when used in combination with biocide B • CA: Concentration of biocide A required for complete bacterial kill when used alone • Cb: Concentration of biocide B required for complete bacterial kill when used in combination with biocide A • CB: […] Antagonistic

[2] = test system: mixture of Pseudomonas aeruginosa, Klebsiella pneumoniae, Staphylococcus aureus, and Bacillus subtilis; experiment: Growth Inhibition Assay (microtiter plate, OD580); format: cell-based; settings: for inhibition at 0.39 µg/mL / inhibition at 0.78 µg/mL / inhibition at 1.56 µg/mL / inhibition at 3.13 µg/mL / inhibition at 6.25 µg/mL / inhibition at 12.5 µg/mL / inhibition at 25 µg/mL: 24 h
Excerpt: Regardless of the mechanism of action, the impact of a biocide (or combination of biocides) can be measured over time on the basis of an increase in the size of the community.
The assay measures the efficacy of one or more biocides at preventing growth of a consortium of bacteria in a dilute mineral salts medium. The medium contains (in mg/l) the following components: FeCl3.6H2O (1); CaCl2.2H2O (10); MgSO4.7H2O (22.5); (NH4)2SO4 (40); KH2PO4 (10); K2HPO4 (25.5); Yeast Extract (10); and glucose (100). After all components are added to deionized water, the pH of the medium is adjusted to 7.5. Following filter sterilization, aliquots are dispensed in 100 ul quantities to sterile microtiter plate wells. Dilutions of DBMAL and/or “Biocide B” are then added to the microtiter plate. After preparing the combinations of actives as illustrated below, each well is inoculated with 100 μl of a cell suspension containing ca. 1×10^6 cells per milliliter of a mixture of Pseudomonas aeruginosa, Klebsiella pneumoniae, Staphylococcus aureus, and Bacillus subtilis. The final total volume of medium in each well is 300 μl. Once prepared as described herein, the concentration of each active ranges from 25 ppm to 0.195 ppm as illustrated in Table 1. The resulting matrix allows testing of eight concentrations of each active and 64 combinations of actives in the ratios (of actives).
Controls (not shown) contain the medium with no biocide added. After preparing the combinations of actives as illustrated above, each well is inoculated with 100 μl of a cell suspension containing ca. 1×10^6 cells per milliliter of a mixture of Pseudomonas aeruginosa, Klebsiella pneumoniae, Staphylococcus aureus, and Bacillus subtilis. The final total volume of medium in each well is 300 μl.
Immediately after the microtiter plates are prepared, the optical density (OD) readings for each well is measured at 580 nm and the plates are then incubated at 37° C. for 24 hr. After the incubation period, the plates are gently agitated before OD580 values are collected. The OD580 values at T0 are subtracted from T24 values to determine the total amount of growth (or lack thereof) that occurs. These values are used to calculate the percent inhibition of growth caused by the presence of each biocide and each of the 64 combinations.
where • CDBMAL: Concentration of DBMAL required to inhibit ˜90% of bacterial growth when used alone • CB: Concentration of biocide (B) required to inhibit ˜90% of bacterial growth when used alone. • MDBMAL: Concentration of DBMAL required to inhibit ˜90% of bacterial growth when used in combination with biocide (B). • MB: Concentration of biocide (B) required to inhibit ˜90% of bacterial growth when used in combination with DBMAL The SI values are interpreted as follows: • SI<1: Synergistic • SI=1: Additive • SI>1: Antagonistic
In the Examples below, the amounts of biocides in the solution are measured in mg per liter of solution (mg/l). Since solution densities are approximately 1.00, the mg/l measurement corresponds to weight ppm. Both units may therefore be used interchangeably in the Examples.

[3] = read-out: % Inhibition of growth by DDMAC
[4] = read-out: % Inhibition of growth by DGH

**Q.** For `NC(=O)C(Br)(Br)C(N)=O` [DBMAL, 2,2-dibromomalonamide], which MBC ([1]; read-out: MBC, 1st biocide DBMAL) is on record?
**A.** Its MBC is 66.7 mg/L.

**Q.** And the inhibition at 0.39 µg/mL ([2]; DBMAL alone 0.39 mg/l, 24 hr (Table 3), read-out: % Inhibition of growth by DBMAL)?
**A.** Its inhibition at 0.39 µg/mL is 28%.

**Q.** And the inhibition at 0.39 µg/mL ([2]; DBMAL alone 0.39 mg/l, 24 hr (Table 7), read-out: % Inhibition of growth by DBMAL)?
**A.** The inhibition at 0.39 µg/mL was 19%.

**Q.** And the inhibition at 0.78 µg/mL ([2]; DBMAL alone 0.78 mg/l, 24 hr (Table 3), read-out: % Inhibition of growth by DBMAL)?
**A.** Its inhibition at 0.78 µg/mL is 34%.

**Q.** What about the inhibition at 0.78 µg/mL ([2]; DBMAL alone 0.78 mg/l, 24 hr (Table 5), read-out: % Inhibition of growth by DBMAL) of the same molecule?
**A.** The inhibition at 0.78 µg/mL was 3%.

**Q.** What about the inhibition at 0.78 µg/mL ([2]; DBMAL alone 0.78 mg/l, 24 hr (Table 7), read-out: % Inhibition of growth by DBMAL) of the same molecule?
**A.** The inhibition at 0.78 µg/mL was 14%.

**Q.** What about the inhibition at 1.56 µg/mL ([2]; DBMAL alone 1.56 mg/l, 24 hr (Table 3), read-out: % Inhibition of growth by DBMAL) of the same molecule?
**A.** Its inhibition at 1.56 µg/mL is 26%.

**Q.** What about the inhibition at 1.56 µg/mL ([2]; DBMAL alone 1.56 mg/l, 24 hr (Table 7), read-out: % Inhibition of growth by DBMAL) of the same molecule?
**A.** The inhibition at 1.56 µg/mL was 8%.

**Q.** What about the inhibition at 3.13 µg/mL ([2]; DBMAL alone 3.13 mg/l, 24 hr (Table 3), read-out: % Inhibition of growth by DBMAL) of the same molecule?
**A.** Its inhibition at 3.13 µg/mL is 1%.

**Q.** And the inhibition at 3.13 µg/mL ([2]; DBMAL alone 3.13 mg/l, 24 hr (Table 5), read-out: % Inhibition of growth by DBMAL)?
**A.** The inhibition at 3.13 µg/mL was 1%.

**Q.** What about the inhibition at 3.13 µg/mL ([2]; DBMAL alone 3.13 mg/l, 24 hr (Table 7), read-out: % Inhibition of growth by DBMAL) of the same molecule?
**A.** Its inhibition at 3.13 µg/mL is 10%.

**Q.** What about the inhibition at 6.25 µg/mL ([2]; DBMAL alone 6.25 mg/l, 24 hr (Table 5), read-out: % Inhibition of growth by DBMAL) of the same molecule?
**A.** The inhibition at 6.25 µg/mL was 5%.

**Q.** What about the inhibition at 6.25 µg/mL ([2]; DBMAL alone 6.25 mg/l, 24 hr (Table 7), read-out: % Inhibition of growth by DBMAL) of the same molecule?
**A.** The inhibition at 6.25 µg/mL was 16%.

**Q.** What about the inhibition at 6.25 µg/mL ([2]; DBMAL alone 6.25 mg/l, 24 hr (Table 9), read-out: % Inhibition of growth by DBMAL) of the same molecule?
**A.** The inhibition at 6.25 µg/mL was 18%.

**Q.** For `CCCCCCCC[N+](C)(C)CCCCCCCC.[Cl-]` [DDAC, dioctyl dimethyl ammonium chloride], which MBC ([1]; read-out: MBC, 2nd biocide DDAC) is on record?
**A.** Its MBC is over 150 mg/L.

**Q.** How did the inhibition at 0.39 µg/mL [2, 3] turn out when `CCCCCCCCCC[N+](C)(C)CCCCCCCCCC` [DDMAC, didecyldimethyl ammonium chloride] was run?
**A.** The inhibition at 0.39 µg/mL was 12%.

**Q.** And the inhibition at 0.78 µg/mL [2, 3]?
**A.** The inhibition at 0.78 µg/mL was 23%.

**Q.** And the inhibition at 1.56 µg/mL [2, 3]?
**A.** Its inhibition at 1.56 µg/mL is 26%.

**Q.** And the inhibition at 3.13 µg/mL [2, 3]?
**A.** Its inhibition at 3.13 µg/mL is 46%.

**Q.** What about the inhibition at 6.25 µg/mL [2, 3] of the same molecule?
**A.** Its inhibition at 6.25 µg/mL is 100%.

**Q.** And the inhibition at 12.5 µg/mL [2, 3]?
**A.** Its inhibition at 12.5 µg/mL is 100%.

**Q.** And the inhibition at 25 µg/mL [2, 3]?
**A.** Its inhibition at 25 µg/mL is 100%.

**Q.** For `CCCCCCCCCCCCNC(=N)N` [DGH, dodecylguanidine hydrochloride], which inhibition at 0.39 µg/mL [2, 4] is on record?
**A.** The inhibition at 0.39 µg/mL was 3%.

**Q.** What about the inhibition at 0.78 µg/mL [2, 4] of the same molecule?
**A.** Its inhibition at 0.78 µg/mL is 0%.

**Q.** What about the inhibition at 1.56 µg/mL [2, 4] of the same molecule?
**A.** Its inhibition at 1.56 µg/mL is 0%.

**Q.** What about the inhibition at 3.13 µg/mL [2, 4] of the same molecule?
**A.** The inhibition at 3.13 µg/mL was 3%.

**Q.** What about the inhibition at 6.25 µg/mL [2, 4] of the same molecule?
**A.** Its inhibition at 6.25 µg/mL is 52%.

**Q.** And the inhibition at 12.5 µg/mL [2, 4]?
**A.** The inhibition at 12.5 µg/mL was 100%.

**Q.** What about the inhibition at 25 µg/mL [2, 4] of the same molecule?
**A.** The inhibition at 25 µg/mL was 100%.

**Q.** For “C12-C16 alkyl dimethyl benzyl ammonium chloride [ADBAC]”, which “% Inhibition of growth by ADBAC” value ([2]; ADBAC alone 0.78 mg/l, 24 hr) is on record?
**A.** The value was 6%.

**Q.** And the “% Inhibition of growth by ADBAC” value ([2]; ADBAC alone 1.56 mg/l, 24 hr)?
**A.** Its value is 50%.

**Q.** And the “90% inhibition of growth concentration (I90)” value ([2]; single active, 24 hr)?
**A.** The value was 3.13 mg/L.
